From PMC7424068, “Design, Synthesis, and Biological Evaluation of Novel Thiazolidinone-Containing Quinoxaline-1,4-di-N-oxides as Antimycobacterial and Antifungal Agents” (Frontiers in Chemistry, 2020) come the findings set out here.

The test system of one data set is C. albicans (ATCC90028). Description: Antifungal activity, broth microdilution. The format is cell-based, Candida albicans. The following applies: Candida albicans ATCC 90028, read-out: MIC. As for the experimental part: (§1) All synthesized compounds and the positive control drugs amphotericin B and ketoconazole were tested for their in vitro antifungal activity. Antifungal activity was evaluated against four fungi, C. albicans (ATCC90028), C. tropicalis (ATCC7349), A. fumigatus (3.5352), and C. neoformans (2.3201), by broth microdilution according to the protocols from the NCCLS (Jiang et al., [2014]). Briefly, all tested compounds were dissolved in DMSO, and the solutions were diluted with fresh broth medium. All of the fungi-seeded broth (1 × 10^5 colony-forming units [CFU]/mL) were prepared in RPMI 1640 medium and added into the serially diluted drug solution. The tubes were incubated at 28°C, and the MIC (μg/mL) was recorded 72–96 h post-incubation. Broth control (without fungi), growth controls (with fungi and without drug), solvent (DMSO) control, and drug control for both test drugs and standard drugs were set under identical conditions. The minimum drug concentration in the tubes in which no apparent growth of the organism was observed represented the MIC of the compounds.
(In general: In broth dilution the organism is exposed to a series of concentrations in liquid medium.)

A further data set concerns Mtb H37Rv (ATCC27294). Description: Antimycobacterial activity, microplate Alamar blue assay (MABA). It counts as cell-based, Mycobacterium tuberculosis. As to conditions: Mycobacterium tuberculosis, Mtb H37Rv.
A further data set concerns C. neoformans (2.3201). Description: Antifungal activity, broth microdilution. It counts as cell-based. The following applies: Cryptococcus neoformans; C. neoformans 2.3201; read-out: MIC. As for the experimental part:
as §1

The subject of the next data set is A. fumigatus (3.5352). The experiment in a line: Antifungal activity, broth microdilution. It counts as cell-based. The following applies: Aspergillus fumigatus; A. fumigatus 3.5352; read-out: MIC. As for the experimental part: as §1
For the next data set, the system named is C. tropicalis (ATCC7349). Description: Antifungal activity, broth microdilution. The format is cell-based. As to conditions: Candida tropicalis, C. tropicalis ATCC 7349, read-out: MIC. As for the experimental part: as §1
A further data set deals with VERO cell line. The experiment in a line: Cytotoxicity MTT assay. The format is cell-based. The following applies: Chlorocebus sabaeus, cytotoxicity in VERO cells, 72 h. As for the experimental part:
VERO cells (2 × 10^4 cells) were seeded into 96-well plates and incubated for 12 h. Serial dilutions of the compounds were mixed with the cell suspension in the plates. Both treated cells and blank and solvent controls were incubated for 72 h, followed by incubation with MTT (0.5 mg/mL) for another 4 h. The microplates were measured at 570 nm using a multimode reader (Infinite M200, Tecan). The percentage of viable cells was calculated as the mean with respect to the controls set to 100%. Triplicate wells were analyzed for each concentration. IC50 was defined as the concentration that reduced the viable cells by 50% compared to the untreated control cells. It was considered significant when the SI was more than 10.
(Tetrazolium assays rely on reduction of a dye to a coloured formazan, in cell work by metabolically active cells.)

Setting [1] is: repeated in Table 5 for the 3D-QSAR models, read-out: MIC.
[2] abbreviates: experimental pMIC, Table 5, read-out: pMIC exp (converted).

The structures appear in SMILES notation. In brackets after ≈: the same amount, converted by molar mass. Like-named read-outs stand apart in the source and are kept apart here.

`COc1ccc(N2C(=O)CSC2c2c[n+]([O-])c3ccc(OC)cc3[n+]2[O-])cc1` (stereo not drawn) [2n, 7-OMe-2-(3′-P-methoxyphenyl-4′(5H)-thiazolidinone)-quinoxaline-1,4-di-N-oxide] had a melting point of 258 to 260 °C. In addition, the MIC in the data set on C. albicans (ATCC90028) is > 64 µg/mL. Further, the MIC with Mtb H37Rv (ATCC27294) (MABA assay, read-out: MIC) was found to be 200 µg/mL. For the same compound, the MIC with Mtb H37Rv (ATCC27294) (setting [1]) worked out at 200 µg/mL. In addition, the MIC in the data set on Mtb H37Rv (ATCC27294) (setting [2]) is 501 µM. For the same compound, in the data set on C. neoformans (2.3201), the MIC is > 64 µg/mL. For the same compound, the MIC in the data set on A. fumigatus (3.5352) was > 64 µg/mL. Besides, in the data set on C. tropicalis (ATCC7349), the MIC came out at 64 µg/mL (≈ 160 µM).

As for `COc1ccc2c(c1)[n+]([O-])c(C1SCC(=O)N1c1ccc(F)cc1)c[n+]2[O-]` (stereo not drawn) [2o, 7-OMe-2-(3′-P-fluorophenyl-4′(5H)-thiazolidinone)-quinoxaline-1,4-di-N-oxide], the melting point fell in the range of 255 to 257 °C. Also, the MIC with C. albicans (ATCC90028) came out at 64 µg/mL (≈ 165 µM). Also, the MIC in the data set with Mtb H37Rv (ATCC27294) (MABA assay, read-out: MIC) stood at 50 µg/mL. The MIC in the data set on Mtb H37Rv (ATCC27294) (setting [1]) was determined as 50 µg/mL. For the same compound, the MIC in the data set on Mtb H37Rv (ATCC27294) (setting [2]) was 129 µM. Also, in the data set with C. neoformans (2.3201), the MIC worked out at 32 µg/mL (≈ 82.6 µM). Moreover, the MIC in the data set on A. fumigatus (3.5352) was 64 µg/mL (≈ 165 µM). In addition, the MIC in the data set on C. tropicalis (ATCC7349) was 64 µg/mL (≈ 165 µM).

`COc1ccc2c(c1)[n+]([O-])c(C1SCC(=O)N1c1ccc(Cl)cc1)c[n+]2[O-]` (stereo not drawn) [2p, 7-OMe-2-(3′-P-chlorophenyl-4′(5H)-thiazolidinone)-quinoxaline-1,4-di-N-oxide] came in with a melting point of 253 to 256 °C. Besides, the MIC in the data set with C. albicans (ATCC90028) came to 64 µg/mL (≈ 158 µM). In addition, in the data set with Mtb H37Rv (ATCC27294) (MABA assay, read-out: MIC), the MIC was found to be 50 µg/mL. Further, the MIC with Mtb H37Rv (ATCC27294) (setting [1]) amounted to 50 µg/mL. Moreover, the MIC with Mtb H37Rv (ATCC27294) (setting [2]) is 124 µM. The MIC in the data set with C. neoformans (2.3201) turned out to be 32 µg/mL (≈ 79.2 µM). For the same compound, the MIC with A. fumigatus (3.5352) was > 64 µg/mL. For the same compound, in the data set with C. tropicalis (ATCC7349), the MIC stood at 64 µg/mL (≈ 158 µM).

For the compound `O=C1CSC(c2c[n+]([O-])c3ccc(F)cc3[n+]2[O-])N1c1ccccc1` (stereo not drawn) [2q, 7-F-2-(3′-phenyl-4′(5H)-thiazolidinone)-quinoxaline-1,4-di-N-oxide], the melting point is 249 to 252 °C. Further, the MIC in the data set with C. albicans (ATCC90028) was determined as 8 µg/mL (≈ 22.4 µM). The MIC in the data set on Mtb H37Rv (ATCC27294) (MABA assay, read-out: MIC) was found to be 6.25 µg/mL. Further, the MIC in the data set with Mtb H37Rv (ATCC27294) (setting [1]) amounted to 6.25 µg/mL. Also, the MIC in the data set on Mtb H37Rv (ATCC27294) (setting [2]) is 17.5 µM. Moreover, in the data set on VERO cell line, inhibition was half-maximal at 126 µg/mL (≈ 354 µM) (IC50). Moreover, in the data set with C. neoformans (2.3201), the MIC was found to be 16 µg/mL (≈ 44.8 µM). For the same compound, the MIC in the data set with A. fumigatus (3.5352) came out at 16 µg/mL (≈ 44.8 µM). The MIC in the data set on C. tropicalis (ATCC7349) was determined as 4 µg/mL (≈ 11.2 µM).

For `Cc1ccc(N2C(=O)CSC2c2c[n+]([O-])c3ccc(F)cc3[n+]2[O-])cc1` (stereo not drawn) [2r, 7-F-2-(3′-P-methylphenyl-4′(5H)-thiazolidinone)-quinoxaline-1,4-di-N-oxide], the melting point was in the range of 249 to 251 °C. In addition, the MIC in the data set with C. albicans (ATCC90028) is 8 µg/mL (≈ 21.5 µM). Besides, the MIC in the data set with Mtb H37Rv (ATCC27294) (MABA assay, read-out: MIC) is 12.5 µg/mL. For the same compound, the MIC in the data set with Mtb H37Rv (ATCC27294) (setting [1]) was determined as 12.5 µg/mL. Further, the MIC with Mtb H37Rv (ATCC27294) (setting [2]) is 33.7 µM. For the same compound, the MIC in the data set on C. neoformans (2.3201) was determined as 16 µg/mL (≈ 43.1 µM). The MIC with A. fumigatus (3.5352) worked out at 8 µg/mL (≈ 21.5 µM). The MIC in the data set on C. tropicalis (ATCC7349) was found to be 8 µg/mL (≈ 21.5 µM).

For `COc1ccc(N2C(=O)CSC2c2c[n+]([O-])c3ccc(F)cc3[n+]2[O-])cc1` (stereo not drawn) [2s, 7-F-2-(3′-P-methoxyphenyl-4′(5H)-thiazolidinone)-quinoxaline-1,4-di-N-oxide], the melting point lay within 251 to 253 °C. For the same compound, in the data set on C. albicans (ATCC90028), the MIC was 8 µg/mL (≈ 20.7 µM). In addition, the MIC with Mtb H37Rv (ATCC27294) (MABA assay, read-out: MIC) is 25 µg/mL. The MIC with Mtb H37Rv (ATCC27294) (setting [1]) was 25 µg/mL. For the same compound, the MIC in the data set on Mtb H37Rv (ATCC27294) (setting [2]) is 64.6 µM. Moreover, the MIC in the data set with C. neoformans (2.3201) is 8 µg/mL (≈ 20.7 µM). Moreover, in the data set on A. fumigatus (3.5352), the MIC worked out at 8 µg/mL (≈ 20.7 µM). Further, the MIC with C. tropicalis (ATCC7349) worked out at 8 µg/mL (≈ 20.7 µM).

With `COc1ccc(N2C(=O)CSC2c2c[n+]([O-])c3ccc(Cl)cc3[n+]2[O-])cc1` (stereo not drawn) [2x, 7-Cl-2-(3′-P-methoxyphenyl-4′(5H)-thiazolidinone)-quinoxaline-1,4-di-N-oxide], the melting point lay in the range of 252 to 254 °C. In addition, the MIC in the data set on C. albicans (ATCC90028) was found to be 8 µg/mL (≈ 19.8 µM). The MIC in the data set with Mtb H37Rv (ATCC27294) (MABA assay, read-out: MIC) amounted to 12.5 µg/mL. In the data set with Mtb H37Rv (ATCC27294) (setting [1]), the MIC amounted to 12.5 µg/mL. Further, the MIC in the data set with Mtb H37Rv (ATCC27294) (setting [2]) was 31 µM. For the same compound, in the data set on C. neoformans (2.3201), the MIC stood at 8 µg/mL (≈ 19.8 µM). Besides, the MIC in the data set with A. fumigatus (3.5352) was 8 µg/mL (≈ 19.8 µM). Moreover, the MIC in the data set on C. tropicalis (ATCC7349) turned out to be 8 µg/mL (≈ 19.8 µM).

Broadly, the melting point is the temperature, or range, at which the solid turns liquid. The term IC50 denotes the concentration that inhibits the measured activity by half.
